Values of other authors as cited in publication PMC6437649 (Molecular Pharmaceutics, 2019).

Question: Which “log P” value does the source give for `C#C[C@]1(O)CC[C@H]2[C@@H]3CCC4=Cc5oncc5C[C@]4(C)[C@H]3CC[C@@]21C` [danazol] here?
Answer: Its value is 4.9.
